In patent US8524897B2, “Crystalline oxazine derivative” (Novartis AG, priority 2011, dated 2013):

Legend:
[1] = Test 4: Inhibition of cellular release of amyloid peptide 1-40; assay type: cell-based, Chinese hamster; conditions: Cricetulus griseus, CHO, 24 h, mean IC50, Test 4, CHO cells with human APP, read-out: Amyloid-β1-40 release IC50
Method: (§1) Test 4: Inhibition of Cellular Release of Amyloid Peptide 1-40
(§2) Chinese hamster ovary cells are transfected with the human gene for amyloid precursor protein. The cells are plated at a density of 8000 cells/well into 96-well microtiter plates and cultivated for 24 hours in DMEM cell culture medium containing 10% FCS. The test compound is added to the cells at various concentrations, and the cells are cultivated for 24 hours in the presence of the test compound. The supernatants are collected, and the concentration of amyloid peptide 1-40 is determined using state of the art immunoassay techniques, for example sandwich ELISA, homogenous time-resolved fluorescence (HTRF) immunoassay, or electro-chemiluminescence immunoassay.

[2] = Chemical stability of amorphous versus crystalline material exposed to high temperature/humidity for one week (UPLC purity, solid state); assay type: physicochemical
Method: Chemical stability of amorphous versus crystalline 5-cyano-3-methyl-pyridine-2-carboxylic acid [3-((3R,6R)-5-amino-3,6-dimethyl-6-trifluoromethyl-3,6-dihydro-2H-[1,4]oxazin-3-yl)-4-fluoro-phenyl]-amide when exposed to high temperature/humidity for one week
The stability of amorphous versus crystalline 5-cyano-3-methyl-pyridine-2-carboxylic acid [3-((3R,6R)-5-amino-3,6-dimethyl-6-trifluoromethyl-3,6-dihydro-2H-[1,4]oxazin-3-yl)-4-fluoro-phenyl]-amide was tested by exposing the amorphous or crystalline material to high temperature and/or humidity for one week. After storage at high temperature and/or humidity, bulk amorphous or crystalline material was sampled and dissolved in acetonitrile and the purity analysed in a Aquity UPLC from Waters using the following conditions: […]

[3] = system: amyloid peptide 1-40 release from Chinese hamster ovary cells transfected with the human gene for amyloid precursor protein; experiment: Test 4: Inhibition of cellular release of amyloid peptide 1-40; assay type: cell-based; conditions: mean IC50, Test 4, CHO cells with human APP, 24 hours; read-out: Amyloid-β1-40 release IC50
Method: as §1, §2

| Structure (SMILES) | IC50 [1] | Purity-% ([2]; 50° C., one week, listed as Amorphous) | Purity-% ([2]; 80° C., one week, listed as Amorphous) | Purity-% ([2]; RT, 0 (start), listed as Amorphous) | Purity-% ([2]; RT, one week) | IC50 [3] | Purity-% ([2]; 40° C./75% RH, one week) | Solid State ([2]; 40° C./75% RH, one week) | Solid State ([2]; 50° C., one week) | Purity-% ([2]; 50° C., one week, listed as Crystalline) | Solid State ([2]; 80° C., one week, Low = lower peaks when measured by XRPD) | Purity-% ([2]; 80° C., one week, listed as Crystalline) | Solid State ([2]; RT, 0 (start)) | Purity-% ([2]; RT, 0 (start), listed as Crystalline) |
| --- | --- | --- | --- | --- | --- | --- | --- | --- | --- | --- | --- | --- | --- | --- |
| Cc1cc(C#N)cnc1C(=O)Nc1ccc(F)c([C@]2(C)CO[C@@](C)(C(F)(F)F)C(N)=N2)c1 [Example 1 Amorphous, 5-cyano-3-methyl-pyridine-2-carboxylic acid [3-((3R,6R)-5-amino-3,6-dimethyl-6-trifluoromethyl-3,6-dihydro-2H-[1,4]oxazin-3-yl)-4-fluoro-phenyl]-amide] | 2.6 nM | 91.6% | 55.8% | 96.4% | 96.3% | – | – | – | – | – | – | – | – | – |
| Cc1cc(C#N)cnc1C(=O)Nc1ccc(F)c([C@]2(C)CO[C@@](C)(C(F)(F)F)C(N)=N2)c1 [Example 1 Crystalline, 5-cyano-3-methyl-pyridine-2-carboxylic acid [3-((3R,6R)-5-amino-3,6-dimethyl-6-trifluoromethyl-3,6-dihydro-2H-[1,4]oxazin-3-yl)-4-fluoro-phenyl]-amide] | – | – | – | – | – | 2 nM | 98.23% | Crystalline | Crystalline | 98.05% | Crystalline, | 98.01% | Crystalline | 98.7% |
